Measured values reported in EP2664619B1, “Purine derivatives as tools for screening anti-Alzheimer compounds” (Manros Therapeutics, priority 2012, dated 2013).

Columns and labels:
[1] = system: Aβ42 production; assay: Sandwich ELISA measurement of Aβ42 levels in supernatant of treated N2a-APP695 cells; assay type: cell-based, Mouse; settings: N2a-APP695 cells; for EC50: Mus musculus, 18h incubation, ELISA assay, read-out: EC50 (µM) at inducing Aβ42 production
Experimental: Mouse neuroblastoma cells (N2a cells) or N2a-APP695 cells (N2a cell line stably transfected with APP695, an amyloid precursor protein) were cultured in an essential medium composed of Dulbecco's minimal essential medium (DMEM) and of OptiMEM® (1:1, v/v) (Gibco®) containing 0.2 mg/mL Geniticin (Geneticin® Selective Antibiotic, Gibco®) and 5 % fetal bovine serum (FBS, Gibco®, EU approved origin) in a humidified, 5% CO2 incubator at 37°C. Routinely, cells were split without use of Trypsin every 4/5 days. They were first rinsed with PBS (Gibco) and detached from the plate bottom using 4 mL Versene (Gibco) at room temperature for 3-4 min. 8 mL of fresh medium were added to the cell suspension, and the mix was centrifuged for 3 min at 1,000 rpm. The cell pellet was resuspended in fresh medium before seeding (1/10 dilution) in new flasks.
The N2a-APP695 cells were seeded at 10.000 cells/well in a 96 well plate with modified media (0.5% FBS) and incubated overnight. Cells were treated with fresh media comprising different compounds according to the invention (equal quantity of DMSO sold by Sigma®). They were then incubated for 18h in a humidified, 5% CO2 incubator.
Purines according to the invention were added at various concentrations to N2a-APP695.
The plate was finally centrifuged to remove cell fragments before collecting supernatant samples for amyloids levels determination.
Then, Aβ38, Aβ40 and Aβ42 levels were measured in a sandwich ELISA (Enzyme-Linked ImmunoSorbent Assay) using a combination of monoclonal antibody 6E10 (mAb 6E10) (sold by Covance® under the reference SIG-39320) and biotinylated polyclonal Aβ38, Aβ40 or Aβ42 antibodies (provided by Dr. P.D. Mehta, IBR, Staten Island, USA).
A solution of 100 µl mAb 6E10 diluted in carbonate-bicarbonate buffer, pH 9.6, was coated in the wells of microtiter plates (Maxisorp™ sold by Nunc®) and incubated at 4°C overnight. The plates were then washed with PBST (PBS tablets sold by Gibco®) containing 0.05% Tween-20 (Sigma®), and blocked for 1 h with 1% BSA (Sigma®) in PBST (PBS tablets sold by Gibco®) containing 0.05 Tween-20 (Sigma®) to avoid nonspecific binding.
Following a washing step, samples were added and incubated for 2 hours at room temperature (RT) and then at 4°C overnight. Plates were then washed before incubation with biotinylated polyclonal antibody diluted in PBST (PBS tablets sold by Gibco®) containing 0.05 Tween-20 (Sigma®) + 0.5% BSA at room temperature for 75 minutes.
After a washing step, streptavidin-horseradish peroxidase conjugate (Streptavidin poly-HRP, Thermo Scientific Pierce®), diluted in PBS + 1% BSA, was added and incubation was carried out for 45 min at room temperature. After washing, 100 µl of o-phenylenediamine dihydrochloride (OPD tablets, Invitrogen®) diluted in citrate buffer pH 5.0 were added. The reaction was stopped after 15 min with the addition of 100 µl 1 N sulfuric acid.
A range of known concentrations of Aβ38, Aβ40 and Aβ42, ranging from 0.01 to 10 ng/mL for Aβ38 and Aβ42, and ranging from 0.001 to 10 ng/mL for Aβ40, were use as a reference scale to determine the concentrations of Aβ38, Aβ40 and Aβ42 obtained.
The optical density was finally measured at 490 nm in a microELISA reader (sold by BioTek Instrument, reference E1 800, Gen 5 software).
The EC50 of the molecules tested were thus calculated.

[2] = system: N2a-APP695 cells; assay: MTS cell viability assay in the same wells as the ELISA; settings: MTS assay, N2a-APP695 cells; for Toxicity: class symbol; for Toxicity (concentration in brackets): concentration above which toxic
Experimental: To measure cell viability, the MTS assay (CellTiter 96® AQueous One Solution Cell Proliferation Assay, Promega) was used in the same wells as the capture ELISA assay. 20µl of MTS reagent (3-(4,5-dimethylthiazol-2-yl)-5-(3-carboxymethoxyphenyl)-2-(4-sulfophenyl)-2H-tetrazolium) was added in each well containing 100µl of media and incubation was then proceeded for 3 hours (37°C, 5% CO2 and 95% humidity). Measurements were made on OD 490Δ630 nm (excitation and emission wavelengths) using a microELISA reader (BioTek Instrument, El 800, Gen 5 software).

SMILES	EC50 [1] [µM]	fold (printed in the EC50 cell) ([1]; Aβ42 production) [fold]	Toxicity [2]	Toxicity (concentration in brackets) [2] [µM]
CC(C)n1cnc2c(N(C)Cc3ccccc3)nc(N)nc21 [Aftin-1, N6-benzyl-9-isopropyl-N6-methyl-purine-2,6-diamine]	20	–	+	–
CN(Cc1ccccc1)c1nc(N)nc2c1ncn2C1CCCC1 [Aftin-2, N6-Benzyl-9-cyclopentyl-N6-methyl-purine-2,6-diamine]	11	–	- ("-" means that the tested compound is non toxic with a concentration higher than 100 µM)	–
CC[C@H](CO)Nc1nc(OCc2ccccc2)c2ncn(C(C)C)c2n1 [Aftin-3]	13	–	- ("-" means that the tested compound is non toxic with a concentration higher than 100 µM)	–
CC[C@H](CO)Nc1nc(N(C)Cc2ccccc2)c2ncn(C(C)C)c2n1 [Aftin-4, N6-methyl-roscovitine]	10	–	+	> 31
CN(Cc1ccccc1)c1nc(N)nc2[nH]cnc12 [Compound 1, reference compound]	100	–	- ("-" means that the tested compound is non toxic with a concentration higher than 100 µM)	–
CC[C@H](CO)Nc1nc(NCc2ccccc2)c2ncn(C(C)C)c2n1 [Compound 2, reference compound]	–	–	- ("-" means that the tested compound is non toxic with a concentration higher than 100 µM)	–
CC(C)n1cnc2c(N(C)Cc3ccccc3)ncnc21 [Compound 9, N-benzyl-9-isopropyl-N-methyl-purin-6-amine]	12	–	- ("-" means that the tested compound is non toxic with a concentration higher than 100 µM)	–
CN(Cc1ccccc1)c1ncnc2c1ncn2C1CCCC1 [Compound 12]	12	–	+	> 31
CC[C@H](CO)Nc1nc(N2CCc3ccccc32)c2ncn(C(C)C)c2n1 [Compound 19]	8	–	+	> 31
CC[C@@H](CO)Nc1nc(N(C)c2ccccc2)c2ncn(C(C)C)c2n1 [Compound 26]	17	–	- ("-" means that the tested compound is non toxic with a concentration higher than 100 µM)	–
CC(C)n1cnc2c(N(C)Cc3ccc(-c4ccccn4)cc3)nc(NC[C@H](O)CO)nc21 [Compound 29]	10	–	- ("-" means that the tested compound is non toxic with a concentration higher than 100 µM)	–
CC[C@H](CO)Nc1nc(N(C)Cc2ccc(C(=O)NCCOCCOCCOCCOCCOCCN)cc2)c2ncn(C(C)C)c2n1 [Compound 30]	> 100	–	- ("-" means that the tested compound is non toxic with a concentration higher than 100 µM)	–
CC[C@@H](CO)Nc1nc(OCc2ccccc2)c2ncn(C(C)C)c2n1 [Compound 32]	21	–	- ("-" means that the tested compound is non toxic with a concentration higher than 100 µM)	–
CC(C)n1cnc2c(N(C)Cc3ccc(F)cc3)nc(NC3CCNCC3)nc21 [Compound 33]	10	2	+	> 12
CCC(CO)Nc1nc(N(C)c2ccc(F)cc2)c2ncn(C(C)C)c2n1 (stereo not shown) [Compound 34]	30	–	- ("-" means that the tested compound is non toxic with a concentration higher than 100 µM)	–
CC[C@H](CO)Nc1nc(N(C)Cc2cccc(OC)c2)c2ncn(C(C)C)c2n1 [Compound 36]	105	–	+	> 100
CC[C@@H](CO)Nc1nc(N(C)Cc2ccc(F)cc2)c2ncn(C(C)C)c2n1 [Compound 37]	52	–	+	> 12
CC[C@H](CO)Nc1nc(N(C)Cc2ccc(F)cc2)c2ncn(C(C)C)c2n1 [Compound 38]	55	–	+	> 12
CC(C)n1cnc2c(N(C)c3ccccc3)nc(N(CCO)CCO)nc21 [Compound 39]	> 150	–	–	–
CC(C)n1cnc2c(N(C)c3ccccc3)nc(NCCO)nc21 [Compound 40]	> 150	–	- ("-" means that the tested compound is non toxic with a concentration higher than 100 µM)	–
CC[C@H](CO)Nc1nc(N(CC)c2ccccc2)c2ncn(C(C)C)c2n1 [Compound 42]	25	–	+	> 100
CC[C@H](CO)Nc1nc(SCc2ccccc2)c2ncn(C(C)C)c2n1 [Compound 47, (2R)-2-[(6-benzylsulfanyl-9-isopropyl-purin-2-yl)amino]butan-1-ol]	> 10	–	+	–

Further molecules by falling EC50 [1], results first:

EC50 [1] [µM]	fold (printed in the EC50 cell) ([1]; Aβ42 production) [fold]	SMILES	Toxicity [2]	Toxicity (concentration in brackets) [2] [µM]
4.5	–	CC[C@H](CO)Nc1nc(N(C)c2ccc(OC)cc2)c2ncn(C(C)C)c2n1 [Compound 44, (2R)-2-[[9-isopropyl-6-[(4-methoxyphenyl)-methyl-amino]purin-2-yl]amino]butan-1-ol]	+	> 21
3.8	–	CC[C@H](CO)Nc1nc(N(CC)Cc2ccccc2)c2ncn(C(C)C)c2n1 [Compound 13]	+	> 31
3.5	–	CC[C@H](CO)Nc1nc(N2CCc3ccccc3C2)c2ncn(C(C)C)c2n1 [Compound 24]	+	> 31
3.5	–	CC(C)n1cnc2c(OCc3ccccc3)nc(OCc3ccccc3)nc21 [Compound 46, 9-Iso-propyl-2,6-dibenzyloxypurine]	+	> 12
3.2	–	CC[C@H](CO)Nc1nc(N(C)Cc2ccc(-c3ccccn3)cc2)c2ncn(C(C)C)c2n1 [Compound 16]	+	> 31
2.8	–	CC[C@@H](CO)Nc1nc(N(C)Cc2ccc(-c3ccccn3)cc2)c2ncn(C(C)C)c2n1 [Compound 28]	+	> 12
2.7	–	CC[C@H](CO)Nc1nc(N(C)Cc2ccccc2)c2ncn(C3CCCC3)c2n1 [Compound 14]	+	> 20
2.5	–	CC[C@H](CO)Nc1nc(N(Cc2ccccc2)C(C)C)c2ncn(C(C)C)c2n1 [Compound 23, (2R)-2-[[6-[benzyl(isopropyl)amino]-9-isopropylpurin-2-yl]amino]butan-1-ol]	+	> 12
1.35	–	CCCN(Cc1ccccc1)c1nc(N[C@H](CC)CO)nc2c1ncn2C(C)C [Compound 20]	+	> 12
1.3	–	CC[C@H](CO)Nc1nc(N(CC)Cc2ccccc2)c2ncn(Cc3ccccc3)c2n1 [Compound 18]	+	> 12
0.8	–	CCN(CC)CCNc1nc(N(CC)Cc2ccccc2)c2ncn(C3CCCC3)c2n1 [Compound 22]	+	> 12
0.7	–	CC[C@H](CO)Nc1nc(N(C)Cc2ccccc2)c2ncn(Cc3ccccc3)c2n1 [Compound 17]	+	> 12
0.5	–	CCN(Cc1ccccc1)c1nc(N[C@@H](CO)C(C)C)nc2c1ncn2C1CCCC1 [Compound 15]	+	–
0.45	–	CC[C@H](CO)Nc1nc(N(C)Cc2ccc(-c3ccccc3)cc2)c2ncn(C(C)C)c2n1 [Compound 21]	+	–
